The test system of data set [1] is ME180 (Cervical) xenograft. Briefly: In vivo tumor growth inhibition, mouse xenograft, ME180. The note with it: IP. The arrangement: species or system nude athymic CD-1 mice. How it is done:
(§1) Tumor xenograft studies were performed using nude athymic CD-1 mice (Charles River Laboratories). Human cancer cells (5×10^6 PC3, 5×10^6 HT29, 10^7 Calu-6, and 5×10^6 ME180) were implanted in the hind flank of nude mice. Tumor growth was measured using calipers and tumor volume calculated using the formula: (width^2×(length/2)). Tumor volume was measured 3 days per week. Animal weight was measured 3 days per week to assess compound toxicity.
(§2) Compounds were tested for in vivo tumor growth inhibition as follows. Animals bearing tumors 100-200 mg were sorted into groups (5-8 animals) with similar average tumor mass per group. Drug doses were administered by intraperitoneal (IP) injection (0.5 mL). Test compounds were dissolved in phosphate buffered saline (PBS) and concentration adjusted for animal weight. Actual drug concentrations in formulated doses were verified by quantitative nitrogen detection. Animals were dosed every 7 days for 21 days in most studies. In several studies, animals were dosed twice weekly (days 0, 4, 7, 10, 14, etc.). Tumor volume and animal weight were measured on days 0, 2, 4, 7, 9, 11, 14, 16, 18, 21, 23, 25, and 28. At the end of the study, animal blood was removed for analysis of liver and kidney function (BUN, creatine, AST and ALT; analytical measurements performed by Quality Clinical Labs). Tumor volume at the end of the study was calculated as a percentage of the tumor volume on day 0. The percent tumor growth inhibition was obtained from the ratio of the percentage tumor volume increase in drug treated animals to the percentage tumor volume increase in saline treated animals.

Another data set relates to PC3 (Prostate) xenograft. Nature of the data set: In vivo tumor growth inhibition, mouse xenograft, PC3. The arrangement: species or system nude athymic CD-1 mice. The conditions noted are these: 80 mg/kg (2/week), IP. On the procedure:
as §1
as §2, with “At the end of the study, animal blood was removed for analysis of liver and kidney function (BUN, creatine, AST and ALT; analytical measurements performed by Quality Clinical Labs).” left out, “The percent tumor growth inhibition was obtained from the ratio of the percentage tumor volume increase in drug treated animals to the percentage tumor volume increase in saline treated animals.” left out

The next data set relates to Calu-6 (Lung) xenograft. Nature of the data set: In vivo tumor growth inhibition, mouse xenograft, Calu-6. The conditions noted are these: IP. Also on record: species or system nude athymic CD-1 mice. On the procedure: as §1, §2
For data set [2], the system named is HT29 cells. Briefly: Effect of sugar transport inhibitor (phloridzen) on in vitro cytotoxicity. Type of data set: cell-based, human. The conditions noted are these: for GI50: 48 hours. On the procedure:
(§3) The effect of experimental compounds on cancer cell growth and viability was measured in a panel of human cancer cells grown in vitro. All cancer cell lines were obtained from the American […]. Cells were maintained in the following media: TUR, H69AR, Calu-6, ME180, and PC3 cells were grown in RPMI medium containing 4.5 g/L glucose, 10% FBS, 4 mM L-glutamine, and 1 mM sodium pyruvate); and HT29 cells were grown in DMEM with 4.5 g/L glucose, 10% FBS, and 6 mM L-glutamine. All cells were grown at 37° C. in 5% CO2 and passaged bi-weekly.
(§4) For cytoxicity studies, cells were seeded into 96-well clear-bottom microtiter plates at the following densities: TUR (7,500 cells/well), HT29 (5,000 cells/well), H69AR (10,000 cells/well), Calu-6 (15,000 cells/well), and ME180 (2,500 cells/well). Cells were maintained at 37° C. with 5% CO2 for 24 hours prior to addition of various experimental compounds. Each condition was measured in triplicate. For compounds dissolved in DMSO, the final DMSO concentration in each well and in the non-drug treated control cells was constant and below 1% in all studies. The number of viable cells was determined after 24, 48, and 72 hours using Alamar blue fluorescence. Briefly, Alamar blue (10 mM) was added to each well for 4 hours, and the number of viable cells estimated by measuring the fluorescence of reduced Alamar blue (530 nm excitation, 590 nm emission). To correct for background fluorescence, cells were treated with 100% DMSO to eliminate all viable cells. The effect of drug on cell growth was determined by calculating the fraction of live cells treated with drug compared to untreated cells: (F1drug treated−F1DMSO killed)/(F1untreated−F1DMSO killed).

A further data set relates to PC3 cells. Briefly: In vitro cytotoxicity (Alamar blue growth inhibition), PC3. Type of data set: cell-based, human. The note with it: PC3, 48 h. On the procedure: as §3, §4
A further data set deals with HT29 (Colon) xenograft. Nature of the data set: In vivo tumor growth inhibition, mouse xenograft, HT29. The arrangement: species or system nude athymic CD-1 mice. The note with it: IP. On the procedure: as §1, §2
The nature of data set [3]: Determination of maximum tolerated dose (MTD). Type of data set: in vivo, nude mice. The conditions noted are these: for Therapeutic Index MTD/Min Eff: ratio of maximum tolerated dose to minimally effective dose. On the procedure: To determine the maximum tolerated doses for compound (54) relative to clinically used platinum anticancer agents, nude mice were injected with increasing drug doses (0.5 mL, intraperitoneally) on days 0, 7, and 14. […] The therapeutic index of a given drug is defined as the ratio of the maximum tolerated dose to the minimally effective dose.

A further data set deals with TUR cells. Nature of the data set: In vitro cytotoxicity (Alamar blue growth inhibition), TUR. The data set is classed as cell-based, human. The conditions noted are these: 48 h. On the procedure:
as §3, §4
A general note: Resazurin is reduced to fluorescent resorufin, in cell work by metabolically active cells.

For a further data set, the system named is Calu-6 cells. Briefly: In vitro cytotoxicity (Alamar blue growth inhibition), Calu-6. The data set is classed as cell-based, human. The note with it: Calu-6, 48 h. How it is done:
as §3, §4

Data set [4] deals with HT29 cells. Nature of the data set: In vitro cytotoxicity (Alamar blue growth inhibition), HT29. The data set is classed as cell-based, human. The conditions noted are these: HT29, 48 h. On the procedure: as §3, §4
Data set [5] relates to several different tumor types. Nature of the data set: In vivo tumor growth inhibition, overall statement. The arrangement: species or system nude athymic CD-1 mice. The note with it: mouse xenografts, compared with cisplatin, oxaliplatin, carboplatin. How it is done:
as §1
as §2, with “At the end of the study, animal blood was removed for analysis of liver and kidney function (BUN, creatine, AST and ALT; analytical measurements performed by Quality Clinical Labs).” left out, “The percent tumor growth inhibition was obtained from the ratio of the percentage tumor volume increase in drug treated animals to the percentage tumor volume increase in saline treated animals.” left out

For a further data set, the system named is H69AR cells. Nature of the data set: In vitro cytotoxicity (Alamar blue growth inhibition), H69AR. The note with it: 48 h. Type of data set: cell-based, human. On the procedure: as §3, §4
Another data set deals with ME180 cells. Briefly: In vitro cytotoxicity (Alamar blue growth inhibition), ME180. The note with it: ME180, 48 h. Type of data set: cell-based, human. On the procedure: as §3, §4

The results in this text go back to patent US20060205677A1 (XenoPort, Inc., priority 2005, published 2006).

Each structure is given as a SMILES string.

As to `O=C(CCCC1C(=O)[O][Pt]2([NH]C3CCCCC3[NH]2)[O]C1=O)NCC1OC(O)C(O)C(O)C1O` [(54), [1R,2R-Cyclohexanediamine-N,N′][{3-(α,β-D-Galactopyranos-6-ylamido)propyl}propanedioato(2-)-O,O′]Platinum (II)], the “Percent Tumor Growth Inhibition ME180 (Cervical)” value came out at 24% in [1] (50 mg/kg (2/week)), 24% in data set [1] (75 mg/kg (2/week)), 18% in data set [1] (100 mg/kg) and 68% in [1] (500 mg/kg). Besides, the “Percent Tumor Growth Inhibition PC3 (Prostate)” value in the data set on PC3 (Prostate) xenograft is on record as 82%. Besides, the entries for the “Percent Tumor Growth Inhibition Calu-6 (Lung)” value in the data set on Calu-6 (Lung) xenograft (50 mg/kg (2/week)), with Calu-6 (Lung) xenograft (100 mg/kg) and in the data set on Calu-6 (Lung) xenograft (500 mg/kg) were 73%, 42% and 81%, respectively. For the same compound, the GI50 – broadly, the concentration that inhibits growth by half – with HT29 cells [2] (HT29, 0 mM phloridzen, read-out: GI50 of Uptake in HT29 Cells, 0 mM Phoridzen) is 385 µM; in the data set with HT29 cells [2] (HT29, 0.2 mM phloridzen, read-out: GI50 of Uptake in HT29 Cells, 0.2 mM Phoridzen), 574 µM; in the data set with HT29 cells [2] (HT29, 0.5 mM phloridzen, read-out: GI50 of Uptake in HT29 Cells, 0.5 mM Phoridzen), 759 µM; in the data set on HT29 cells [2] (HT29, 1.0 mM phloridzen, read-out: GI50 of Uptake in HT29 Cells, 1.0 mM Phoridzen), > 1000 µM; in the data set on PC3 cells, 85 µM; with TUR cells, 9 µM. In addition, the GI50 was determined as 185 µM with Calu-6 cells, 238 µM in the data set with HT29 cells [4], 77 µM in the data set with H69AR cells and 15 µM with ME180 cells. For the same compound, the “Effect of increasing concentrations of phloridzen on cytotoxic effects” value in the data set on HT29 cells [2] (HT29, 48 hours, in words) is listed as “block the cytotoxic effects”. In addition, the figures for the “Percent Tumor Growth Inhibition HT29 (Colon)” value with HT29 (Colon) xenograft (75 mg/kg (2/week)) and in the data set on HT29 (Colon) xenograft (100 mg/kg) were 74% and 63%, respectively. Moreover, the “Therapeutic index relative to cisplatin, carboplatin, oxaliplatin, in words” value in [3] (in words) is “dramatically improved therapeutic index”. In [3], the “Therapeutic Index MTD/Min Eff” value was 12.7. In addition, in [5], the “Inhibition of tumor growth in vivo, in words” value was “effective in inhibiting growth of several different tumor types in vivo”.

As for `O=C(CCCC1C(=O)[O][Pt]2([NH]C3CCCCC3[NH]2)[O]C1=O)NC1C(O)OC(CO)C(O)C1O` [(79), [1R,2R-Cyclohexanediamine-N,N′][{3-(α,β-D-Glucopyranos-2-yl-amido)propyl}propanedioato(2-)-O,O′]Platinum (II)], in the data set on PC3 (Prostate) xenograft, the “Percent Tumor Growth Inhibition PC3 (Prostate)” value worked out at 48%. For the same compound, the GI50 in the data set on PC3 cells amounted to 67 µM; in the data set with TUR cells, 15 µM; in the data set on HT29 cells [4] it was 124 µM; in the data set on H69AR cells it was 55 µM.

In the case of `N.N.O=C([O-])C1(C(=O)[O-])CCC1.[Pt+2]` [Carboplatin, reference compound], in [1] (100 mg/kg), the “Percent Tumor Growth Inhibition ME180 (Cervical)” value worked out at 25%. The “Percent Tumor Growth Inhibition Calu-6 (Lung)” value in the data set with Calu-6 (Lung) xenograft (100 mg/kg) is recorded as 56%. Also, the GI50 in the data set on PC3 cells turned out to be 290 µM; in the data set with TUR cells, 123 µM; in the data set with Calu-6 cells, 712 µM; in the data set with HT29 cells [4], 515 µM; with H69AR cells, 94 µM; with ME180 cells, 64 µM. The “Percent Tumor Growth Inhibition HT29 (Colon)” value in the data set on HT29 (Colon) xenograft (100 mg/kg) is reported as 47%. In addition, the “Therapeutic Index MTD/Min Eff” value in [3] is recorded as 2.3.
